How the values were obtained:
Assay type in all cases: in vivo
[1] = test system: IL-12; assay: IL-12 levels in sera upon i.v. glycolipid administration to C57BL/6 mice (ELISA); parameters: IL-12 levels, test 1 / IL-12 levels, test 2 / IL-12 levels, average / IL-12 levels, Total: unit not given here
Description: (§1) Five- to six-week-old female C57BL/6 mice and BALB/c mice were purchased from Taconic. Each glycolipid was stored at 1 mg/ml in 100% DMSO. Mice were injected intravenously with 1 μg of each glyocolipid diluted in 200 μL sterile phosphate buffered saline (PBS). At indicated time points, sera were collected from each animal, and concentrations of IFN-γ, IL-4, and IL-12 in the sera were evaluated by enzyme-linked immunosorbent assay (ELISA). Serum concentrations of IFN-γ, IL-4, and IL-12 were evaluated using an ELISA kit (eBioscience, San Diego, Calif.). Briefly, 96 well flat-bottom ELISA plates (NUNC) were coated with capture antibody according to the manufacture's recommendation and incubated overnight at 4° C. The plates were washed with PBS+0.05% Tween 20 (PBS-T), then incubated with manufacturer provided blocking solution for 1 hr at room temperature to block non-specific binding sites. After washing with PBS-T, sera diluted 1:10 was added to the wells and incubated for 2 hrs at room temperature. Plates were then incubated at room temperature for 1 hr with biotintylated detection antibody, washed, incubated with avidin conjugated to horse radish peroxidase (HRP) for 30 min at room temperature, washed, and finally incubated with tetramethylbenzidine substrate solution in the dark for 10 minutes at room temperature. The antibodies, avidin-HRP, and substrate solution were all diluted according to the manufacture's recommendation. Reactions were stopped with 2.0N sulfuric acid and the cytokine concentration in each well was determined by comparing the absorbance at 450 nm in each well to known standards. The levels of Th1- and Th2-type cytokines were determined in two different genetic backgrounds, i.e., in C57BL/6 mice and BALB/c mice. The following compounds were administered: A=compound (A-1 trans-conformer), B=compound (A-2), C=compound (A-3), D=compound (A-4), E=compound (A-5), Z=control (PBS alone), CRONY=α-C-GalCer, KRN=α-GalCer, GCK109 (A-1 trans-conformer), GCK151 (A-1 cis-conformer), GCK152 (A-7). The levels of cytokines were measured at 0, 2, 6, 12, 24, 48, and 72 hours after the compound administration. The levels of Th1-type cytokines IFN-γ and IL-12 are summarized in FIGS. 2A-C and 3A-C, respectively. Table 7 provides IFN-γ/IL-4 and IL-12/IL-4 ratios for various compounds, which can be used as indicators of their ability to selectively stimulate Th1-type immune responses.

[2] = test system: IL-12; assay: IL-12 levels in sera upon i.v. glycolipid administration to BALB/c mice (ELISA); parameters: IL-12 levels, test 1 / IL-12 levels, test 2 / IL-12 levels, average / IL-12 levels, Total: unit not given here
Description: as §1

[3] = test system: IFN-γ; assay: IFN-γ levels in sera upon i.v. glycolipid administration to C57BL/6 mice (ELISA); parameters: IFN-γ levels, test 1 / IFN-γ levels, test 2 / IFN-γ levels, average / IFN-γ levels, Total / IFN-γ (B6): unit not given here
Description: as §1

[4] = test system: IFN-γ; assay: IFN-γ levels in sera upon i.v. glycolipid administration to BALB/c mice (ELISA); parameters: IFN-γ levels, test 1 / IFN-γ levels, test 2 / IFN-γ levels, average / IFN-γ levels, Total: unit not given here
Description: as §1

[5] = C57BL/6, ratio calculated from Tables 1-6
[6] = C57BL/6, serum, total over hours 0-72

## CCCCCCCCCCCCCCCCCCCCCCCCCCCCC(=O)N[C@@H](/C=C/[C@H]1O[C@H](CO)[C@H](O)[C@H](O)[C@H]1O)[C@H](O)[C@H](O)CCCCCCCCCCCCCC [A-2, (3S,4S,5R)-1-C-(α-D-galactopyranosyl)-3-(N-nonacosanoylamino)-4,5-nonadec-(1,2-E)-enediol]
[1]; [5]
  IL-12/IL-4 (B6): 4.8
[1]; C57BL/6, serum, hour 0
  IL-12 levels, average: 5
  IL-12 levels, test 1: 5
  IL-12 levels, test 2: 5
[1]; C57BL/6, serum, hour 2
  IL-12 levels, average: 161.5
  IL-12 levels, test 1: 178
  IL-12 levels, test 2: 145
[1]; C57BL/6, serum, hour 6
  IL-12 levels, average: 1363.5
  IL-12 levels, test 1: 1488
  IL-12 levels, test 2: 1239
[1]; C57BL/6, serum, hour 12
  IL-12 levels, average: 1818.5
  IL-12 levels, test 1: 1692
  IL-12 levels, test 2: 1945
[1]; C57BL/6, serum, hour 24
  IL-12 levels, average: 323
  IL-12 levels, test 1: 44
  IL-12 levels, test 2: 602
[1]; C57BL/6, serum, hour 48
  IL-12 levels, average: 250
  IL-12 levels, test 1: 500
  IL-12 levels, test 2: 0
[1]; C57BL/6, serum, hour 72
  IL-12 levels, average: 45.5
  IL-12 levels, test 1: 91
  IL-12 levels, test 2: 0
[1]; [6]
  IL-12 levels, Total: 3969
[2]; ratio calculated from Tables 1-6
  IL-12/IL-4 (BALB/c): 30
[2]; serum, hour 0
  IL-12 levels, average: 5
  IL-12 levels, test 1: 5
  IL-12 levels, test 2: 5
[2]; serum, hour 2
  IL-12 levels, average: 74
  IL-12 levels, test 1: 141
  IL-12 levels, test 2: 7
[2]; serum, hour 6
  IL-12 levels, average: 7251.5
  IL-12 levels, test 1: 7080
  IL-12 levels, test 2: 7423
[2]; serum, hour 12
  IL-12 levels, average: 10800
  IL-12 levels, test 1: 11600
  IL-12 levels, test 2: 10000
[2]; serum, hour 24
  IL-12 levels, average: 442.5
  IL-12 levels, test 1: 454
  IL-12 levels, test 2: 431
[2]; serum, hour 48
  IL-12 levels, average: 66.5
  IL-12 levels, test 1: 0
  IL-12 levels, test 2: 133
[2]; serum, hour 72
  IL-12 levels, average: 222.5
  IL-12 levels, test 1: 3
  IL-12 levels, test 2: 442
[2]; serum, total over hours 0-72
  IL-12 levels, Total: 18864
[3]; [5]
  IFN-γ/IL-4 (B6): 16
[3]; C57BL/6, serum, hour 0
  IFN-γ levels, average: 31
  IFN-γ levels, test 1: 31
  IFN-γ levels, test 2: 31
[3]; C57BL/6, serum, hour 2
  IFN-γ levels, average: 138.5
  IFN-γ levels, test 1: 138
  IFN-γ levels, test 2: 139
[3]; C57BL/6, serum, hour 6
  IFN-γ levels, average: 944.5
  IFN-γ levels, test 1: 955
  IFN-γ levels, test 2: 934
[3]; C57BL/6, serum, hour 12
  IFN-γ levels, average: 2932
  IFN-γ levels, test 1: 2427
  IFN-γ levels, test 2: 3437
[3]; C57BL/6, serum, hour 24
  IFN-γ levels, average: 8415
  IFN-γ levels, test 1: 7023
  IFN-γ levels, test 2: 9807
[3]; C57BL/6, serum, hour 48
  IFN-γ levels, average: 464
  IFN-γ levels, test 1: 424
  IFN-γ levels, test 2: 504
[3]; C57BL/6, serum, hour 72
  IFN-γ levels, average: 100.5
  IFN-γ levels, test 1: 87
  IFN-γ levels, test 2: 114
[3]; [6]
  IFN-γ levels, Total: 13027
[4]; BALB/c, ratio calculated from Tables 1-6
  IFN-γ/IL-4 (BALB/c): 43
[4]; BALB/c, serum, hour 0
  IFN-γ levels, average: 27
  IFN-γ levels, test 1: 27
  IFN-γ levels, test 2: 27
[4]; BALB/c, serum, hour 2
  IFN-γ levels, average: 234
  IFN-γ levels, test 1: 197
  IFN-γ levels, test 2: 271
[4]; BALB/c, serum, hour 6
  IFN-γ levels, average: 4185.5
  IFN-γ levels, test 1: 3723
  IFN-γ levels, test 2: 4648
[4]; BALB/c, serum, hour 12
  IFN-γ levels, average: 6418.5
  IFN-γ levels, test 1: 7529
  IFN-γ levels, test 2: 5308
[4]; BALB/c, serum, hour 24
  IFN-γ levels, average: 15500
  IFN-γ levels, test 1: 16500
  IFN-γ levels, test 2: 14500
[4]; BALB/c, serum, hour 48
  IFN-γ levels, average: 325.5
  IFN-γ levels, test 1: 319
  IFN-γ levels, test 2: 332
[4]; BALB/c, serum, hour 72
  IFN-γ levels, average: 62.5
  IFN-γ levels, test 1: 59
  IFN-γ levels, test 2: 66
[4]; BALB/c, serum, total over hours 0-72
  IFN-γ levels, Total: 26755
[4]; C57BL/6 and BALB/c mice, 1 μg i.v.
  effect: higher/extended IFN-γ and IL-12 with much lower IL-4 compared to α-GalCer (KRN): particularly pronounced
